Calls of active or inactive are those of the source. The rule behind the calls is not given here.
Legend:
Rattus norvegicus [1] = test: Cognitive enhancing effect in rat at 10 mg/kg, po after 60 mins by novel object recognition test; format: functional, organism-based; parameters: dose 10 mg/kg
[2] = target: T1, Muscarinic acetylcholine receptor M1 (Homo sapiens) (UniProt P11229); test: Binding affinity to human muscarinic M1 receptor expressed in CHO cells co-expressing pCRE-Luc gene assessed as modulation of acetylcholine-induced intracellular cAMP level at 0.5 uM after 5 hrs by luciferase based luminescence assay; format: cell-based
T1 sequence (whole entry): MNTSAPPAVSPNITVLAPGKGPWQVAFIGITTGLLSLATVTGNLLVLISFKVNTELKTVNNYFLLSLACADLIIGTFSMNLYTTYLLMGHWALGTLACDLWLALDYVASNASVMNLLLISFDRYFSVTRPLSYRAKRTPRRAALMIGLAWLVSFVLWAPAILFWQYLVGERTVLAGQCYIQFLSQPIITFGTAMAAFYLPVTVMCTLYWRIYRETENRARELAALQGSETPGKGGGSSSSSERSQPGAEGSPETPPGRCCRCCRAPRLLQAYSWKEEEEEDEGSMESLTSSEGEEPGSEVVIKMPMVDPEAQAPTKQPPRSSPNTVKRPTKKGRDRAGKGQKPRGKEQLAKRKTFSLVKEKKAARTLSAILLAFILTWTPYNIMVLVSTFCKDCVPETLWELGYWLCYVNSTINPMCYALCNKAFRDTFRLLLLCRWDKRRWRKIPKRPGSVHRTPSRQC

[3] = Cmax in Wistar rat at 10 mg/kg, iv; format: ADME, organism-based; parameters: dose 10 mg/kg, route intravenous; conditions: in vivo
[4] = target: Sodium-dependent dopamine transporter (Homo sapiens) (UniProt Q01959); test: Inhibition of DAT at 0.5 uM
Chain of Sodium-dependent dopamine transporter (Homo sapiens) (Q01959 whole entry): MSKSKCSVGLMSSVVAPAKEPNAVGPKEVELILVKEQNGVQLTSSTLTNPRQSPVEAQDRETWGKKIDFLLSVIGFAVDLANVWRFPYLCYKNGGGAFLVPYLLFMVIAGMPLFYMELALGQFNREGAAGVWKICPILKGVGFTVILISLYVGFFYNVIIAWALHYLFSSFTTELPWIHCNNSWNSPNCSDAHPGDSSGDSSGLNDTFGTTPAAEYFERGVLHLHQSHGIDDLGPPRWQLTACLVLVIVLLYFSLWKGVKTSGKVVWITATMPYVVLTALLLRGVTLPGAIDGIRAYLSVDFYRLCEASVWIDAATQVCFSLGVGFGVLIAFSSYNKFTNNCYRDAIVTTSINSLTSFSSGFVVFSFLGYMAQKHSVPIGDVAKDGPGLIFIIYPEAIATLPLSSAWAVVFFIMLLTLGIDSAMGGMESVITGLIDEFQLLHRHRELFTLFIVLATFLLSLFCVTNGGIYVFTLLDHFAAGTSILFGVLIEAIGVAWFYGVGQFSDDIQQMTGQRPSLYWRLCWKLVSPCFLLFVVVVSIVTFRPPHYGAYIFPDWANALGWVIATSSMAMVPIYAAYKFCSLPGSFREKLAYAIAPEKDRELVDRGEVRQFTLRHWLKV

[5] = target: D(2) dopamine receptor (Homo sapiens) (UniProt P14416); test: Inhibition of dopamine D2 receptor at 0.5 uM
[6] = AUCt in Wistar rat at 10 mg/kg, po; format: ADME, organism-based; parameters: dose 10 mg/kg, route oral; conditions: plasma
[7] = Clearance in Wistar rat at 10 mg/kg, iv; format: ADME, organism-based; parameters: dose 10 mg/kg, route intravenous; conditions: in vivo
[8] = Half life in Wistar rat at 10 mg/kg, po; format: ADME, organism-based; parameters: dose 10 mg/kg, route oral; conditions: in vivo
[9] = Cmax in Wistar rat at 10 mg/kg, po; format: ADME, organism-based; parameters: dose 10 mg/kg, route oral; conditions: in vivo
[10] = target: Sodium-dependent serotonin transporter (Homo sapiens) (UniProt P31645); test: Inhibition of SERT at 0.5 uM
Chain of Sodium-dependent serotonin transporter (Homo sapiens) (P31645 whole entry, looked up): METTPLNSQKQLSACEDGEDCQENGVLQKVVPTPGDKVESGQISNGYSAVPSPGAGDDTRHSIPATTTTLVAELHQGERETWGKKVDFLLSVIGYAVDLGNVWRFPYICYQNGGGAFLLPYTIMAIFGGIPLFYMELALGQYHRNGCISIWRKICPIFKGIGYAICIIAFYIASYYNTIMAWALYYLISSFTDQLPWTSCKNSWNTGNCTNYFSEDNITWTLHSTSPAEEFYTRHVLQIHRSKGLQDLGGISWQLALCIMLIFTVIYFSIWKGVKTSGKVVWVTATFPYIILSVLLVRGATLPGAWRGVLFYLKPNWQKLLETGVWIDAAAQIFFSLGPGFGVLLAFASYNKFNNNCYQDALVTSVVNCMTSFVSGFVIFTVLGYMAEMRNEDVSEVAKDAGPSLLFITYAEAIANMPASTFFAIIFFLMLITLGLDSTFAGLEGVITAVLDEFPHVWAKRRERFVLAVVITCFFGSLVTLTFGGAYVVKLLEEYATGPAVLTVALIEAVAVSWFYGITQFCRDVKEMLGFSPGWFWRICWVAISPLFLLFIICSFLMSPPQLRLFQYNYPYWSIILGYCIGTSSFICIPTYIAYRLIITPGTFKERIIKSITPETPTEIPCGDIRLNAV

[11] = target: T2, 5-hydroxytryptamine receptor 2C (Homo sapiens) (UniProt P28335); test: Inhibition of 5HT2C receptor at 0.5 uM
T2 sequence (whole entry): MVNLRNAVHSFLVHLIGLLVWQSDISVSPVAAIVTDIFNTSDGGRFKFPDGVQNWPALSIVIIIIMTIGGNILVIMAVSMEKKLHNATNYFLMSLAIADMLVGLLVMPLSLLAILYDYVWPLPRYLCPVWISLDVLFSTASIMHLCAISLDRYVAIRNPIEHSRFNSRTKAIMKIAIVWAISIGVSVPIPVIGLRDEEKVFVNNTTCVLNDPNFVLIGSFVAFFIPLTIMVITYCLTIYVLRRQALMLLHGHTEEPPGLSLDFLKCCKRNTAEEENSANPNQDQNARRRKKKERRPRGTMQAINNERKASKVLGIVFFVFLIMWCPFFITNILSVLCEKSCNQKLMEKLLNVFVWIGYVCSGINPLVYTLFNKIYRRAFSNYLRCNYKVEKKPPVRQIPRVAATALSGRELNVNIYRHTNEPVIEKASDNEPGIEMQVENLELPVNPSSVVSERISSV

[12] = Clearance in Wistar rat at 10 mg/kg, po; format: ADME, organism-based; parameters: dose 10 mg/kg, route oral; conditions: in vivo
[13] = target: 5-hydroxytryptamine receptor 4 (Homo sapiens) (UniProt Q13639); test: Binding affinity to human recombinant 5HT4 receptor expressed in CHO cells co-expressing pCRE-Luc gene assessed as modulation of serotonin-induced intracellular cAMP level at 0.5 uM after 5 hrs by luciferase based luminescence assay; format: cell-based
Chain of 5-hydroxytryptamine receptor 4 (Homo sapiens) (Q13639 whole entry): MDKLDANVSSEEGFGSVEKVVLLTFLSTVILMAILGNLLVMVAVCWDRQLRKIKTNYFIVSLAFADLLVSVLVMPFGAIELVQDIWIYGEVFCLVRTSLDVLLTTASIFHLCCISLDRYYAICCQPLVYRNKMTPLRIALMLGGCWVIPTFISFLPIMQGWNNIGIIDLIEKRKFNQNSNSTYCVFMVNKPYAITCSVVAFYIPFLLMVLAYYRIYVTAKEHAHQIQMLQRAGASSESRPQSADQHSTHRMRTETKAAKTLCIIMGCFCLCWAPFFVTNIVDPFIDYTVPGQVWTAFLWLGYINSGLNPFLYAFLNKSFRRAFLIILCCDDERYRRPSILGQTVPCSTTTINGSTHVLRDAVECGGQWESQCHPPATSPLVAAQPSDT

[14] = target: T3, Alpha-1B adrenergic receptor (Homo sapiens) (UniProt P35368); test: Inhibition of adrenergic alpha1b receptor at 0.5 uM
T3 sequence (whole entry): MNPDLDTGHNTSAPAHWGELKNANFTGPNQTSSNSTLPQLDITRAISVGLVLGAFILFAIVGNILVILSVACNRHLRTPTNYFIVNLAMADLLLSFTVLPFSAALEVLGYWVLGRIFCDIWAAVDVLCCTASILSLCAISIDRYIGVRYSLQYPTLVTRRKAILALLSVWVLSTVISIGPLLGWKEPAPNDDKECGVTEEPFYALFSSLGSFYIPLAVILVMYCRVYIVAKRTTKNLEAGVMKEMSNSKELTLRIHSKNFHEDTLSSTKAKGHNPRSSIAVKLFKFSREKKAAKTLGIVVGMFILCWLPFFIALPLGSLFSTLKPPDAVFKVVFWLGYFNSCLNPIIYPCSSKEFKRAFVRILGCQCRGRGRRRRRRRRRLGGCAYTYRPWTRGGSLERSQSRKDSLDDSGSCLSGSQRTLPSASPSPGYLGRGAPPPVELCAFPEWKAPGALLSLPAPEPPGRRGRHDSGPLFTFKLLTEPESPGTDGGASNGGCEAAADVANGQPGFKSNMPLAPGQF

[15] = target: Sodium-dependent noradrenaline transporter (Homo sapiens) (UniProt P23975); test: Inhibition of NET at 0.5 uM
Chain of Sodium-dependent noradrenaline transporter (Homo sapiens) (P23975 whole entry): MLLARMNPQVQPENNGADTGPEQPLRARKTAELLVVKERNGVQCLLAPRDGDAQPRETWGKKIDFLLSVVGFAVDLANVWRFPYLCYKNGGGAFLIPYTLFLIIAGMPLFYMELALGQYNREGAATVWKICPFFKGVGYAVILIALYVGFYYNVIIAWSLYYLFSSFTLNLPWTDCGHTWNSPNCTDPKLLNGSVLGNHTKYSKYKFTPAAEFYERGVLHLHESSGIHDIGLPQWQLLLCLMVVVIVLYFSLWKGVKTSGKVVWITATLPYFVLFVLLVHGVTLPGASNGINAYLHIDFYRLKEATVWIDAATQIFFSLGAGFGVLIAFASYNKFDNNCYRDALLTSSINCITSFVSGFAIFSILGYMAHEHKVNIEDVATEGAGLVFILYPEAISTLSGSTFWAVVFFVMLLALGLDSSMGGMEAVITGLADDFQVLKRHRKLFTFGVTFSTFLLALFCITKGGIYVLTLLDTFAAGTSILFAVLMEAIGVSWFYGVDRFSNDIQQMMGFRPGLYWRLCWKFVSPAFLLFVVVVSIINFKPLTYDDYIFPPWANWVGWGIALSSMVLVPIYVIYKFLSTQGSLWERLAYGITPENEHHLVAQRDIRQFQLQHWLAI

[16] = target: 5-hydroxytryptamine receptor 6 (Homo sapiens) (UniProt P50406); test: Binding affinity to human recombinant 5HT6 receptor expressed in CHO cells co-expressing pCRE-Luc gene assessed as modulation of serotonin-induced intracellular cAMP level after 4 hrs by luciferase based luminescence assay; format: cell-based
Chain of 5-hydroxytryptamine receptor 6 (Homo sapiens) (P50406 whole entry): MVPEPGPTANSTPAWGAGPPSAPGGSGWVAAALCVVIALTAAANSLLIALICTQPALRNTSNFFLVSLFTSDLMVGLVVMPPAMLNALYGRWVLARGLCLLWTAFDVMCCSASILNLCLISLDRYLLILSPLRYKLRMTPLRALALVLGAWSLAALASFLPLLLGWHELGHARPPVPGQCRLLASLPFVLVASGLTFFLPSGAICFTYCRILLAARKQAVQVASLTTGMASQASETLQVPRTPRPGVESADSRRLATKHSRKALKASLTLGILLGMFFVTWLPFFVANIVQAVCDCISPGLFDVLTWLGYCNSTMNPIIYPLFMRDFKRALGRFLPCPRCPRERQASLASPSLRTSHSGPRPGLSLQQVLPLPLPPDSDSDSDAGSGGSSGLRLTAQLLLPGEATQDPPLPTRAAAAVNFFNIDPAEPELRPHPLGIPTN

[17] = AUCt in Wistar rat at 10 mg/kg, iv; format: ADME, organism-based; parameters: dose 10 mg/kg, route intravenous; conditions: plasma
[18] = Ratio of drug level in brain to plasma in Wistar rat at 1 mg/kg, iv after 6 hrs; format: ADME, organism-based; parameters: dose 1 mg/kg, route intravenous
[19] = Apparent volume of distribution in Wistar rat at 10 mg/kg, iv; format: ADME, organism-based; parameters: dose 10 mg/kg, route intravenous; conditions: in vivo, read-out: Vz
[20] = Metabolic stability in human liver microsomes assessed as drug metabolized level after 30 mins; format: ADME, Microsome; conditions: read-out: Activity
[21] = Oral bioavailability in Wistar rat at 10 mg/kg; format: ADME, organism-based; conditions: in vivo
[22] = target: 5-hydroxytryptamine receptor 7 (Rattus norvegicus) (UniProt P32305); test: Binding affinity to rat 5HT7 receptor expressed in CHO cells co-expressing pCRE-Luc gene assessed as modulation of serotonin-induced intracellular cAMP level at 0.5 uM after 5 hrs by luciferase based luminescence assay; format: cell-based
Chain of 5-hydroxytryptamine receptor 7 (Rattus norvegicus) (P32305 whole entry): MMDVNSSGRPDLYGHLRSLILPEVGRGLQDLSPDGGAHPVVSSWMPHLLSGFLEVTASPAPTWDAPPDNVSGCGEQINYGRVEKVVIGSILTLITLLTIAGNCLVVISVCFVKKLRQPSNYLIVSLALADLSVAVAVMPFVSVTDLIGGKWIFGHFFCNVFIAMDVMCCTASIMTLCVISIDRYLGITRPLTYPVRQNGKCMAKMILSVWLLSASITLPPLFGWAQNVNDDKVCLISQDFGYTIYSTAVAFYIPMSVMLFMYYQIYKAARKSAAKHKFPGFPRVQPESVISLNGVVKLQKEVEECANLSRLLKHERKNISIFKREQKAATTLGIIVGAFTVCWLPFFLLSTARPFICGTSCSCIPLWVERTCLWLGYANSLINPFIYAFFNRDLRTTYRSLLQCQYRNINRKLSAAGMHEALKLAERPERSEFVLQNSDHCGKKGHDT

Cytochrome P450 2D6 = Cytochrome P450 2D6 (Homo sapiens, UniProt P10635); test: Inhibition of CYP2D6; format: ADME
Chain of Cytochrome P450 2D6 (P10635 whole entry): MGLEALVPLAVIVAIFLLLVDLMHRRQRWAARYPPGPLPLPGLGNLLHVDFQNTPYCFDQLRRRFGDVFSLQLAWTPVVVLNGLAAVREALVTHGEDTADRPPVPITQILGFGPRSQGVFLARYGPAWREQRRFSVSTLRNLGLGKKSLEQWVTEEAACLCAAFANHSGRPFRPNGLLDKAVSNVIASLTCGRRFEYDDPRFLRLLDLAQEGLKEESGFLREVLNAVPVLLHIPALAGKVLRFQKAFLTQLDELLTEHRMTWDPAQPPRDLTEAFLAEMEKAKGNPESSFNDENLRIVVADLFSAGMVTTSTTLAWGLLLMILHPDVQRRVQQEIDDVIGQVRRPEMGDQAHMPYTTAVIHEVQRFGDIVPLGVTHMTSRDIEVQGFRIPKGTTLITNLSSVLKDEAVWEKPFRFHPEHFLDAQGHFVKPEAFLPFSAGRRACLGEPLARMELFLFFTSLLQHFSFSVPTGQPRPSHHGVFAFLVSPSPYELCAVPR

Rattus norvegicus [23] = test: Cognitive enhancing effect against scopolamine-induced memory deficit in rat at 10 mg/kg, po by morris water maze test; format: functional, organism-based; parameters: dose 10 mg/kg
[24] = Metabolic stability in rat liver microsomes assessed as drug metabolized level after 30 mins; format: ADME, Microsome; conditions: read-out: Activity
Cytochrome P450 3A4 = Cytochrome P450 3A4 (Homo sapiens, UniProt P08684); test: Inhibition of CYP3A4; format: ADME
[25] = target: 5-hydroxytryptamine receptor 2A (Homo sapiens) (UniProt P28223); test: Inhibition of 5HT2A receptor at 0.5 uM
Chain of 5-hydroxytryptamine receptor 2A (Homo sapiens) (P28223 whole entry): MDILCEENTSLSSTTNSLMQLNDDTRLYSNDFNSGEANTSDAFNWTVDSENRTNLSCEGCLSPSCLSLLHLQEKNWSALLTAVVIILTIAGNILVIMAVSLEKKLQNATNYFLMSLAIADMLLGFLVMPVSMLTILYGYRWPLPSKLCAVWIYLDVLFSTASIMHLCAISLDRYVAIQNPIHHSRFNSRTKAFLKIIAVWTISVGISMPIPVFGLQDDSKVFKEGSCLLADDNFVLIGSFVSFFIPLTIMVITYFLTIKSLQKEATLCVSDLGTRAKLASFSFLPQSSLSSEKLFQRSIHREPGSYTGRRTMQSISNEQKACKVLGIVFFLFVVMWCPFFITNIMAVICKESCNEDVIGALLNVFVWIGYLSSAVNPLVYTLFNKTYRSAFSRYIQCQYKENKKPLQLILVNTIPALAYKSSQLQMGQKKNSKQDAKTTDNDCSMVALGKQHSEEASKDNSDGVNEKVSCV

Rattus norvegicus [26] = test: Apparent volume of distribution in Wistar rat at 10 mg/kg, po; format: ADME, organism-based; parameters: dose 10 mg/kg, route oral; conditions: in vivo
[27] = Half life in Wistar rat at 10 mg/kg, iv; format: ADME, organism-based; parameters: dose 10 mg/kg, route intravenous; conditions: in vivo
[28] = target: Histamine H1 receptor (Homo sapiens) (UniProt P35367); test: Inhibition of histamine H1 receptor at 0.5 uM
Chain of Histamine H1 receptor (Homo sapiens) (P35367 whole entry): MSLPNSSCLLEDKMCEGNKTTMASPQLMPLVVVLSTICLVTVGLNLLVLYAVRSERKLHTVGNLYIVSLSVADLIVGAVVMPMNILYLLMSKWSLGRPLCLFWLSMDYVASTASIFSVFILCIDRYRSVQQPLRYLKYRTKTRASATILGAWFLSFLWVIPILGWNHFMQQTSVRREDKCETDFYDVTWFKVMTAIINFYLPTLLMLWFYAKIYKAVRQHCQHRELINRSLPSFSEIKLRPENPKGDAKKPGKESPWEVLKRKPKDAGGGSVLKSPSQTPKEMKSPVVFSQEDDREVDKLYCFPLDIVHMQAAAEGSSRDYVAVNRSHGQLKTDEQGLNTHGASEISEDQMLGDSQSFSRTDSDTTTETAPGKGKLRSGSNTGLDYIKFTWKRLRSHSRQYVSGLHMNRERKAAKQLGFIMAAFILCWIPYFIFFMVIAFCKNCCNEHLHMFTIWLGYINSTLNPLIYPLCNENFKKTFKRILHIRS

For `CN1CC(Cl)=C(c2cn(S(=O)(=O)c3ccccc3)c3ccccc23)C1`, the Activity (Rattus norvegicus [1]) was “Active”, the inhibition [2] was < 50% and the Cmax [3] was 2690 ng/mL. For the same molecule, the inhibition [4] was < 50%, the inhibition [5] was < 50% and the AUC(0-t) [6] was 268 ng·h/mL. It also gave a clearance [7] of 72.5 mL/min/kg, a half-life [8] of 225 min and a Cmax [9] of 105 ng/mL. For the same molecule, the inhibition [10] was < 50%, the inhibition [11] was < 50% and the CL/F [12] was 585 mL/min/kg. The inhibition [13] was < 50%, the inhibition [14] was < 50% and the inhibition [15] was < 50%. The Kb [16] was 0.1 nM, the AUC(0-t) [17] was 2320 ng·h/mL and the Kp at 6 h [18] was 1.79. It also gave a Vd [19] of 34.9 L/kg, a metabolised at 0.5 h [20] of 43% and a bioavailability [21] of 12%. The inhibition [22] was < 50%, the IC50 (Cytochrome P450 2D6) was 21.1 µM and the Activity (Rattus norvegicus [23]) was “Active”. For the same molecule, the metabolised at 0.5 h [24] was 70%, the IC50 (Cytochrome P450 3A4) was 14.7 µM and the inhibition [25] was < 50%. For the same molecule, the Vz (Rattus norvegicus [26]) was 196287 mL/kg, the half-life [27] was 329 min and the inhibition [28] was < 50%.

From ChEMBL document CHEMBL1806380, “Rigidized 1-aryl sulfonyl tryptamines: synthesis and pharmacological evaluation as 5-HT6 receptor ligands” (Bioorg Med Chem Lett, 2011)
